How the values were obtained:
[1] = test system: murine model of acute colitis (DSS, C3H/HeJ mice); experiment: Acute colitis model: dextran sodium sulfate (DSS) colitis; assay type: in vivo, mouse; details: 3.5% DSS; 1 mg/kg i.p. from two days before DSS, then every other day
From the text: FIG. 11 (a) depicts, in accordance with an embodiment herein, the effect of CB2 agonist on murine model of acute colitis. Groups of 5 wildtype C3H/HeJ mice were challenged with either DSS 3.5% or acidified water and injected intraperitoneally with CB2 agonist (AM1241(AM)) or antagonist (SR144928 (SR)) or vehicle control (DMSO (D) for AM1241, or EtOH (E) for SR144928) and monitored for weight loss. Intestinal sections were scored histologically at day 10. (b) and (c.) depicts the comparison of DSS colitis in CB2−/− and WT mice, with (b) weight loss and (c) histologic scoring. This is representative of three or more independent experiments.
3.5% Dextran sulfate sodium (prepared in acidified drinking water) was obtained from MP Biomedicals, Inc (Solon, Ohio). Acidified drinking water of colitis-induced mice was replaced with DSS solution for a total of eight days. Controls were given standard acidified drinking water. All mice were sacrificed on day 12, at which time the DSS-treated mice had lost approximately 20% of their body weight. Experiments were performed in duplicate, with groups of 6 mice in each treatment arm. AM1241 (Sigma-Aldrich, MO, in DMSO, 1 mg/mL) was suspended in 250 μL sterile 0.9% saline and injected intraperitoneally (i.p.) at a dose of 1 mg/kg beginning two days prior to the administration of DSS (or acidified drinking water in the control group) and then every other day until the mice were euthanized. […]
Colitis was quantified by both weight loss and histology of intestinal sections. […] Each section was then scored by one blinded pathologist using a standard experimental colitis scoring system.
The effect of CB2-specific agonist in the setting of acute colitis was evaluated using dextran sodium sulfate (DSS), an ingested agent which induces acute, non-T cell mediated colitis (weight loss and bloody diarrhea) within three to five days. Mice were pre-treated with AM1241 or vehicle control, and then monitored for the level of acute colitis induced by DSS ingestion. […]

CB2 receptor = experiment: CB2 agonist (AM1241) inhibition of forskolin-stimulated cAMP production in patient lymphoblastoid cell lines, ELISA; assay type: cell-based, human; details: 250 nM AM1241; 25 nM forskolin; Crohn's disease patient LCLs
Protocol: FIG. 7 depicts, in accordance with an embodiment herein, CB2 receptor protein expression and function. Flow cytometry data derived from staining of 40 Crohn's disease patient lymphoblastoid cell lines with monoclonal CB2 receptor (IgG2A) was generated. LCLs from patients with Crohn's disease were grown in culture and plated 1×10^6 per well on a 96 well plate. These cells were then incubated for 20 minutes with 10 mM IBMX, a phosphodiesterase inhibitor, and washed. Cells were incubated in the presence of various concentrations of forskolin or media control with or without the addition of 250 nM AM1241. Samples were run in triplicate. […] Plates were frozen at −20 degrees and lysates assayed the following day for cAMP concentration using a commercial ELISA kit (R and D) and microwell ELISA plate reader.
A CNR2 candidate gene case-control analysis was performed with 449 patients with Crohn's disease, 215 with ulcerative colitis, and 201 controls. […] EBV immortalized lymphoblastoid cell lines (LCLs) were analyzed for CB2 receptor by flow cytometry, and for CB2 receptor function (Gi-mediated adenylate cyclase inhibition) by CB2 agonist (AM1241) inhibition of forskolin-stimulated cAMP production, measured by ELISA.
To assess the LCL response to CB2 specific agonist, intracellular cAMP was quantified using a standard ELISA kit (R and D Systems). […]

[2] = test system: murine model of immune colitis (Rag1 −/− mice); experiment: Immune colitis model: transfer of Gαi2−/− T cells into Rag1 −/− mice; assay type: in vivo, mouse; details: i.p. every other day, vs DMSO vehicle

Compound | DSS colitis severity compared to vehicle control [1] | inhibition of forskolin-stimulated adenylate cyclase-dependent cAMP response (CB2 receptor) | weight loss compared to vehicle control ([2]; Rag1 −/− mice after Gαi2−/− T cell transfer) | quantitative histologic scoring of intestinal inflammation compared to vehicle control ([2]; sacrificed 8 weeks after T cell transfer)
SR144528 | ameliorated DSS colitis | – | – | –
CN1CCCCC1Cn1cc(C(=O)c2cc([N+](=O)[O-])ccc2I)c2ccccc21 (stereo not drawn) [AM1241] | significantly more severe | approximately 55% | lost significantly less weight | dramatically reduced for inflammation
COc1ccc(C(=O)c2c(C)n(CCN3CCOCC3)c3cc(I)ccc23)cc1 [AM630] | reduced DSS colitis severity | – | – | –

From patent US20110124644A1, “METHODS OF DIAGNOSING AND CHARACTERIZING CANNABINOID SIGNALING IN CROHN'S DISEASE” (CEDARS-SINAI MEDICAL CENTER, priority 2008, published 2011)
